Reference: patent publication US8324390B2, “Tetrazole-substituted anthranilamides as pesticides” (Bayer CropScience AG, priority 2008, dated 2012)
Read-outs that look alike come from different tables or passages of the source.

Experiments:
[1] = tested on: green peach aphid (Myzus persicae); assay: Myzus test (MYZUPE spray treatment); assay type: in vivo; conditions: Myzus persicae, foliar, read-out: effect in % (aphids killed)
Excerpt: Solvent: 78 parts by weight of acetone
(§1) Solvent: 78.0 parts by weight of acetone

[2] = log P determination by HPLC (EEC Directive 79/831 Annex V.A8); assay type: physicochemical
Protocol: The measurements were carried out using an Agilent 1100 LC system with a 50*4.6 Zorbax Eclipse C18 1.8 μm column (oven temperature 55° C., flow rate 2.0 ml/min).
The following mobile phases were used:
Mobile phase A: acetonitrile+1000 μl of formic acid/l
Mobile phase B: Millipore water+900 μl of formic acid/l

[3] = tested on: larvae of the mustard beetle (Phaedon cochleariae); assay: Phaedon test (PHAECO spray treatment); conditions: Phaedon cochleariae, in Brassica rapa, foliar, read-out: effect in % (beetle larvae killed)
[4] = tested on: caterpillars of the armyworm (Spodoptera frugiperda); assay: Spodoptera frugiperda test (SPODFR spray treatment); assay type: in vivo; conditions: Spodoptera frugiperda, foliar, read-out: effect in % (caterpillars killed)
Excerpt: as §1

[5] = application rate 100 g/ha, Chinese cabbage leaf discs
[6] = reversed-phase HPLC, Zorbax Eclipse C18 column, determined by HPLC according to EEC Directive 79/831 Annex V.A8, read-out: log P
[7] = application rate 100 g/ha, maize leaf discs
[8] = reversed-phase HPLC, Zorbax Eclipse C18 column, by HPLC according to EEC Directive 79/831 Annex V.A8, read-out: log P

Compound	pest or weed control at 100 g/ha ([1]; in Brassica rapa) [%]	chromatographic logP ([2]; log P)	pest or weed control at 100 g/ha [3] [%]	pest or weed control at 100 g/ha ([4]; in Zea mays) [%]	pest or weed control at 100 g/ha [1, 5] [%]	chromatographic logP [2, 6]	pest or weed control at 100 g/ha [4, 7] [%]	chromatographic logP [2, 8]	chromatographic logP ([2]; by HPLC according to EEC Directive 79/831 Annex V.A8, read-out: log P)	pest or weed control at 20 g/ha ([1]; in Brassica rapa) [%]
Cc1cc(C)c(NC(=O)c2cc(Cn3nnnc3C(F)(F)F)nn2-c2ncccc2Cl)c(C(=O)NC2CC2)c1 [Example 180]	≥ 80	2.71	≥ 80	≥ 80						
Cc1cc(C#N)cc(C(=O)NOC(C)C)c1NC(=O)c1cc(Cn2nnc(C(F)(F)F)n2)nn1-c1ncccc1Cl [Example 398]	≥ 80	2.88	≥ 80	≥ 80						
Cc1cc(C#N)cc(C(=O)NC(C)C2CC2)c1NC(=O)c1cc(Cn2nnc(C(F)(F)F)n2)nn1-c1ncccc1Cl (stereo not shown) [Example 20]	≥ 80	3.33	≥ 80	≥ 80						
CNC(=O)c1cc(I)cc(C)c1NC(=O)c1cc(Cn2nnc(C(F)F)n2)nn1-c1ncccc1Cl [Example 273]	≥ 80	2.73	≥ 80	≥ 80						
Cc1cc(C#N)cc(C(=O)NC(C)(C)C)c1NC(=O)c1cc(Cn2nnnc2C(F)(F)F)nn1-c1ncccc1F [Example 509]			≥ 80		≥ 80	2.92	≥ 80			
Cc1cc(C#N)cc(C(=O)NC(C)C)c1NC(=O)c1cc(Cn2nnnc2C(F)(F)F)nn1-c1ccccc1Cl [Example 491]			≥ 80		≥ 80	3.25	≥ 80			
Cc1cc(C#N)cc(C(=O)NC2CCC2)c1NC(=O)c1cc(Cn2nnc(C(F)(F)F)n2)nn1-c1ncccc1Cl [Example 24]	≥ 80	3.18	≥ 80	≥ 80						
CCNC(=O)c1cc(C#N)cc(C)c1NC(=O)c1cc(Cn2nnnc2C(F)(F)F)nn1-c1ccccc1Cl [Example 492]			≥ 80		≥ 80	3.01	≥ 80			
CNC(=O)c1cc(C#N)cc(C)c1NC(=O)c1cc(Cn2nnc(C(F)(F)F)n2)nn1-c1ccccc1Cl [Example 310]			≥ 80		≥ 80		≥ 80	3.09		
O=C(NCC1CC1)c1cc(Cl)cc(Cl)c1NC(=O)c1cc(Cn2nnc(C(F)F)n2)nn1-c1ncccc1Cl [Example 289]	≥ 80	3.01	≥ 80	≥ 80						
Cc1cc(Cl)cc(C(=O)NCC#N)c1NC(=O)c1cc(Cn2nnnc2C(F)(F)F)nn1-c1ncccc1Br [Example 486]			≥ 80		≥ 80	2.64	≥ 80			
Cc1cc(Cl)cc(C(=O)NCC#N)c1NC(=O)c1cc(Cn2nnc(C(F)(F)C(F)(F)C(F)(F)F)n2)nn1-c1ncccc1Cl [Example 8]	≥ 80		≥ 80	≥ 80					3.65	
Cc1cc(I)cc(C(N)=O)c1NC(=O)c1cc(Cn2nnc(C(F)(F)F)n2)nn1-c1ncccc1Br [Example 351]			≥ 80		≥ 80		≥ 80	2.95		
Cc1cc(C#N)cc(C(=O)NC(C)C)c1NC(=O)c1cc(Cn2nnnc2C(F)(C(F)(F)F)C(F)(F)F)nn1-c1ncccc1Cl [Example 500]			≥ 80		≥ 80	3.5	≥ 80			
CNC(=O)c1cc(Cl)cc(C)c1NC(=O)c1cc(Cn2nnc(C(F)F)n2)nn1-c1ncccc1Cl [Example 255]	≥ 80	2.46	≥ 80	≥ 80						
CNC(=O)c1cc(S(C)(=O)=O)cc(C)c1NC(=O)c1cc(Cn2nnc(C(F)(F)F)n2)nn1-c1ccccc1Cl [Example 441]			≥ 80		≥ 80	2.73	≥ 80			
CNC(=O)c1cc(C#N)cc(C)c1NC(=O)c1cc(Cn2nnc(C(F)(F)F)n2)nn1-c1ncccc1Br [Example 314]			≥ 80		≥ 80		≥ 80	3.58		
CCNC(=O)c1cc(C#N)cc(C)c1NC(=O)c1cc(Cn2nnnc2C(F)(F)C(F)(F)F)nn1-c1ncccc1Br [Example 519]			≥ 80		≥ 80	2.94	≥ 80			
CNC(=O)c1cc(Br)cc(C)c1NC(=O)c1cc(Cn2nnc(C(F)F)n2)nn1-c1ncccc1Cl [Example 296]	≥ 80	2.61	≥ 80	≥ 80						
Cc1cc(Cl)cc(C(N)=O)c1NC(=O)c1cc(Cn2nnnc2C(F)(F)F)nn1-c1ncccc1Br [Example 481]			≥ 80		≥ 80	2.43	≥ 80			
CNC(=O)c1cc(C#N)cc(C)c1NC(=O)c1cc(Cn2nnc(C(F)(C(F)(F)F)C(F)(F)F)n2)nn1-c1ncccc1Cl [Example 367]	≥ 80	3.35	≥ 80	≥ 80						
Cc1cc(F)cc(C(=O)NCC#N)c1NC(=O)c1cc(Cn2nnc(C(F)(F)F)n2)nn1-c1ncccc1Cl [Example 53]	≥ 80	2.67	≥ 80	≥ 80						
Cc1cc(Cl)cc(C(=O)NC2CC2)c1NC(=O)c1cc(Cn2nnnc2C(F)F)nn1-c1ncccc1Cl [Example 461]		2.5	≥ 80	≥ 80						≥ 80
Cc1cc(C#N)cc(C(N)=O)c1NC(=O)c1cc(Cn2nnnc2C(F)(F)F)nn1-c1ncccc1Br [Example 479]			≥ 80		≥ 80	2.28	≥ 80			
CNC(=O)c1cc(Br)cc(C)c1NC(=O)c1cc(Cn2nnnc2C(F)(F)F)nn1-c1ncccc1Cl [Example 170]	≥ 80	2.72	≥ 80	≥ 80						
Cc1cc(F)cc(C(=O)NC(C)(C)C)c1NC(=O)c1cc(Cn2nnc(C(F)F)n2)nn1-c1ncccc1Cl [Example 308]	≥ 80	2.9	≥ 80	≥ 80						
Cc1cc(Cl)cc(C(N)=O)c1NC(=O)c1cc(Cn2nnc(C(F)(F)F)n2)nn1-c1ncccc1C(F)(F)F [Example 238]			≥ 80		≥ 80		≥ 80	2.97		
NC(=O)c1cc(Cl)cc(Cl)c1NC(=O)c1cc(Cn2nnc(C(F)(F)F)n2)nn1-c1ncccc1Cl [Example 55]	≥ 80	2.72	≥ 80	≥ 80						
